≈ marks a conversion by molar mass, not a printed value.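 Assay format: 96-well plates, 48-hour exposure. GI50: concentration for 50% inhibition of growth. TGI denotes the concentration required for complete inhibition of growth.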
What was measured:
Assay in all cases: NCI anticancer screen, dose series, 48 h
TK-10 renal = test system: TK-10 renal
HCT-116 colon = test system: HCT-116 colon
OVCAR-5 ovarian = test system: OVCAR-5 ovarian
MALME-3M melanoma = test system: MALME-3M melanoma
SF-539 CNS = test system: SF-539 CNS
M14 melanoma = test system: M14 melanoma
CAKI-1 renal = test system: CAKI-1 renal
NCI-H460 lung = test system: NCI-H460 lung
MCF7 breast = test system: MCF7 breast
NCI/ADR-RES ovarian = test system: NCI/ADR-RES ovarian

Compound | TGI (TK-10 renal) [µM] | TGI (HCT-116 colon) [µM] | TGI (OVCAR-5 ovarian) [µM] | TGI (MALME-3M melanoma) [µM] | TGI (SF-539 CNS) | TGI (M14 melanoma) | TGI (CAKI-1 renal) [µM] | TGI (NCI-H460 lung) [µM] | GI50 (TK-10 renal) [µM] | GI50 (HCT-116 colon) | GI50 (CAKI-1 renal) [µM] | GI50 (OVCAR-5 ovarian) [µM] | GI50 (MALME-3M melanoma) | GI50 (SF-539 CNS) | GI50 (MCF7 breast) | TGI (MCF7 breast) [µM] | GI50 (M14 melanoma) | GI50 (NCI-H460 lung) [µM] | GI50 (NCI/ADR-RES ovarian) [µg/mL] | TGI (NCI/ADR-RES ovarian) [µM]
COc1ccc(/C(C#N)=C(/N)SCc2ccccc2Cl)cc1 | 94.7 | 32.8 | 32.9 | 44.7 | 32.5 µM | 27.8 µM |  |  |  |  |  |  |  |  |  |  |  |  |  | 
O=C1NN=C(c2ccc([N+](=O)[O-])cc2)C1n1nc(-c2ccccc2)c2ccccc2c1=O (stereo not given) | > 100 | > 100 | > 100 | > 100 | > 100 µM | > 100 µM | > 100 | > 100 |  |  |  |  |  |  |  |  |  |  |  | 
OC1c2ccccc2C2C(O)c3ccccc3C12 (stereo not given) | > 100 |  | > 100 | > 100 | > 100 µM | > 100 µM | > 100 | > 100 |  |  |  |  |  |  |  |  |  |  |  | 
O=C(CC(=O)C1CCOC1=O)C(=O)Nc1ccc(Cl)cc1 (stereo not given) | > 100 | > 100 | > 100 | > 100 | > 100 µM | > 100 µM | > 100 | > 100 |  |  |  |  |  |  |  |  |  |  |  | 
O=c1[nH]cnc2c1ncn2CCCCO | > 100 | > 100 | > 100 | > 100 | > 100 µM | > 100 µM | > 100 | > 100 |  |  |  |  |  |  |  |  |  |  |  | 
Cc1cc(C)nc(NS(=O)(=O)c2ccc(NC(=O)c3cccc4c(N)c5ccccc5nc34)cc2)n1 | > 100 | > 100 | > 100 | > 100 | > 100 µM | > 100 µM | > 100 | > 100 |  |  |  |  |  |  |  |  |  |  |  | 
COC(=O)c1nc(N)nc(C(=O)OC)c1C(=O)c1ccccc1 | > 100 | > 100 | > 100 | > 100 | > 100 µM | > 100 µM |  | > 100 |  |  |  |  |  |  |  |  |  |  |  | 
CC(=O)O[C@H]1CC[C@@]2(C)C(=C/C(=N\[N+](=O)[O-])[C@H]3C4CCC([C@H](C)CCCC(C)C)[C@@]4(C)CCC32)C1 (stereo not given in full) | > 100 | > 100 | > 100 | > 100 | > 100 µM | > 100 µM | > 100 | > 100 |  |  |  |  |  |  |  |  |  |  |  | 
O=C(NN1C(=O)CSC12CCC(c1ccccc1)CC2)c1[nH]c2ccc(F)cc2c1-c1ccccc1 (stereo not given) | 31.7 | 27.1 | 34.7 | 30.9 | 38.3 µM | 35.6 µM | 36.6 | 47.7 | 17.3 | 14 µM | 17.5 | 18.5 | 16.2 µM | 20.9 µM | 25.3 µM | 71.8 | 20.1 µM | 19.6 |  | 
CC(C)c1cccc(C(C)C)c1NC(=O)C(=O)C1SC(=S)NC1=O (stereo not given) | > 100 | > 100 | > 100 | > 100 | > 100 µM | > 100 µM | > 100 | > 100 |  |  |  |  |  |  |  |  |  |  |  | 
COc1ccc(C=C2C(=O)NC(=O)NC2=O)cc1OCc1ccccc1 |  |  |  |  | 47.4 µg/mL | 82.5 µg/mL |  |  |  | 40.5 µg/mL |  |  | 54.5 µg/mL | 20.3 µg/mL | 59.6 µg/mL |  | 28.1 µg/mL |  | 39.4 (≈ 112 µM) | 
O=S(=O)(N/N=C/c1ccc(Cl)cc1Cl)c1ccccc1 | > 100 | > 100 | > 100 | > 100 | > 100 µM | > 100 µM | > 100 |  |  |  |  |  |  |  |  |  |  |  |  | 
[O-][n+]1c2cc(CN3CCOCC3)c(CN3CCOCC3)cc2[n+]([O-])c2c(O)cccc21 | > 42 | 6.05 | 15.2 | 25.3 | 2.82 µM | 13.2 µM | > 23.9 | 4.5 |  |  |  |  |  |  |  |  |  |  |  | 
COc1cc(/C=C\c2ccc(Cl)cc2)cc(OC)c1OC | > 100 | > 100 | > 31.6 | 57.3 | 0.564 µM | 22.7 µM | 47.4 | > 100 |  |  |  |  |  |  |  |  |  |  |  | 
CCOC(=O)C1Oc2ccc([N+](=O)[O-])cc2C1(C)O (stereo not given) | > 100 |  | > 100 | > 100 | > 100 µM | > 100 µM |  | > 100 |  |  |  |  |  |  |  |  |  |  |  | 
CCOC(=O)/C=C1\Oc2ccccc2C1(C)O (stereo not given) | > 100 | > 100 | > 100 | > 100 |  | > 100 µM | > 100 | > 100 |  |  |  |  |  |  |  |  |  |  |  | 
Cc1cccc(N=C2NC(=O)C(CC(=O)Nc3ccccc3Cl)S2)c1 (stereo not given) | > 100 | > 100 | > 100 | > 100 | > 100 µM | > 100 µM | > 100 | > 100 |  |  |  |  |  |  |  |  |  |  |  | 
Nc1ccc(C2=Nc3ccccc3SC(c3ccccc3O)C2)cc1 (stereo not given) | > 100 |  | > 100 | > 100 | > 100 µM | > 100 µM | > 100 | > 100 |  |  |  |  |  |  |  |  |  |  |  | 
COC1OC(C(C)O)C2OC(C)(C)OC12 (stereo not given) | > 100 | > 100 | > 100 |  | > 100 µM | > 100 µM | > 100 | > 100 |  |  |  |  |  |  |  | > 100 |  |  |  | > 100
COc1ccc(/C=N\O[Si](C)(C)C(C)(C)C)cc1O[Si](C)(C)C(C)(C)C | 36.3 | 29.1 | 39 | 37.4 | 37.9 µM | 36.3 µM | 40.2 | 46.3 |  |  |  |  |  |  |  |  |  |  |  | 
NNC(=S)N/N=C(/C(=O)Nc1ccc([N+](=O)[O-])cc1)c1nc2ccc([N+](=O)[O-])cc2[nH]c1=O | > 100 | > 100 | > 100 | > 100 | > 100 µM | > 100 µM | > 100 | > 100 |  |  |  |  |  |  |  |  |  |  |  | 
COC(=O)C1C(/C=C/c2ccoc2)ON2CCC[C@@H]12 (stereo not given in full) | > 100 |  | > 100 | > 100 | > 100 µM | > 100 µM | > 100 | > 100 |  |  |  |  |  |  |  |  |  |  |  | 
Cc1cc(Cl)ccc1NC(=O)C(=O)Cc1occc(=O)c1O | > 100 | > 100 | > 100 | > 100 | > 100 µM | > 100 µM | > 100 | > 100 |  |  |  |  |  |  |  |  |  |  |  | 
O=c1[nH]c2c(c3ccccc13)CCc1ccccc1-2 | > 100 | > 100 | > 100 | > 100 | > 100 µM |  | > 100 |  |  |  |  |  |  |  |  |  |  |  |  | 
COC1C(O)C(C)OC(O[C@@H]2C[C@H]3CC[C@@H]4[C@H](CC[C@]5(C)[C@@H](C6=CC(=O)OC6)CC[C@]45O)[C@@]3(C)[C@H](O)C2)C1O (stereo not given in full) | 0.896 | 0.0994 | 0.365 | 0.119 | 0.0249 µM | 0.252 µM | 0.0215 | 0.0222 |  |  |  |  |  |  |  |  |  |  |  | 0.183
